ChEMBL document CHEMBL1147320, “Isolation of a novel tyrosine kinase inhibitor, lavendustin A, from Streptomyces griseolavendus” (J Nat Prod, 1989)
Values after ≈ are worked out from the molar mass of the structure shown. Active and inactive are the calls of the source. The calls are words filed in the database; no cut-off is given here.

Assays:
[1] = target: Epidermal growth factor receptor (Mus musculus, UniProt Q01279); test: Inhibition of mouse EGFR by liquid scintillation counting
[2] = Inhibition of protein kinase A
[3] = Inhibition of protein kinase C
[4] = Inhibition of phosphatidylinositol kinase
[5] = target: Epidermal growth factor receptor (Homo sapiens, UniProt P00533)
[6] = tested on: A-431; test: Cytotoxicity against human A431 cells; assay type: functional, cell-based
[7] = target: Epidermal growth factor receptor (Mus musculus) (UniProt Q01279); test: Inhibition of mouse EGFR using [32P]gammaATP as substrate by competitive Lineweaver-Burke plot
[8] = target: Epidermal growth factor receptor (Mus musculus) (UniProt Q01279); test: Inhibition of mouse EGFR using tridecapeptide as substrate by uncompetitive Lineweaver-Burke plot
[9] = Cytotoxicity against mouse NIH/3T3 cells; assay type: cell-based; settings: NIH3T3
[10] = tested on: NIH3T3; test: Cytotoxicity against RSV transformed mouse NIH/3T3 cells; assay type: functional, cell-based
[11] = tested on: P388; test: Cytotoxicity against mouse P388 cells; assay type: functional, cell-based
[12] = tested on: L1210; test: Cytotoxicity against mouse L1210 cells; assay type: functional, cell-based

Sequence of Epidermal growth factor receptor (Mus musculus, UniProt Q01279) (Q01279 whole entry): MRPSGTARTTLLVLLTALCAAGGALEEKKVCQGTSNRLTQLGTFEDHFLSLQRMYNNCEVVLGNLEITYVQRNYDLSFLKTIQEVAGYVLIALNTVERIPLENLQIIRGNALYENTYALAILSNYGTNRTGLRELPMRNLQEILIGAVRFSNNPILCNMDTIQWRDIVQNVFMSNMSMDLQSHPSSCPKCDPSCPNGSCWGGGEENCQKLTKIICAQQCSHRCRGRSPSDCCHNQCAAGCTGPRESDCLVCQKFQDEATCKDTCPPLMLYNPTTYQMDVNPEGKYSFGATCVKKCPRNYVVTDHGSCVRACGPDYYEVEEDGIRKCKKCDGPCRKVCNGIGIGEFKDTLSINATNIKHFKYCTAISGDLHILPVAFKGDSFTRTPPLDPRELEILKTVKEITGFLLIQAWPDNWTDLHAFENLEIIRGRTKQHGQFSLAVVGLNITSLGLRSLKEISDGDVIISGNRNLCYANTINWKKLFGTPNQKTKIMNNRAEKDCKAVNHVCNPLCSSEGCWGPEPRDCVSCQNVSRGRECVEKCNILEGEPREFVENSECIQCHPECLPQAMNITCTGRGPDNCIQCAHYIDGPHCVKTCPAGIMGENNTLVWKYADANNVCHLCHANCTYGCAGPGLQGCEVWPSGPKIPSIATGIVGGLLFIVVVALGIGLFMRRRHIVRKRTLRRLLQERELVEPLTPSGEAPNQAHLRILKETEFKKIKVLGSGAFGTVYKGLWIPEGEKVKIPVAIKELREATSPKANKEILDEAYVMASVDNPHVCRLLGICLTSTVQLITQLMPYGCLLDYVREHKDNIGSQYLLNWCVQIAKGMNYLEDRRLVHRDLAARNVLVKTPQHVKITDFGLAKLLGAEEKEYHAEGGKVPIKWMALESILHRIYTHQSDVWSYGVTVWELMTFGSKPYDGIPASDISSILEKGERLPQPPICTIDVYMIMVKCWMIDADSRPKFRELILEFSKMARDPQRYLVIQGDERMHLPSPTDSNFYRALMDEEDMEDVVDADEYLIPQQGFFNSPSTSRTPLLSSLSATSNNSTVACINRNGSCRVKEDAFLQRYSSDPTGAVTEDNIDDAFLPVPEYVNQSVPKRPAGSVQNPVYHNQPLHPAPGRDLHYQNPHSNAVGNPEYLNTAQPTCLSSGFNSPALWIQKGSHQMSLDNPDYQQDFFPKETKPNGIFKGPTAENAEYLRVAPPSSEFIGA
Sequence of Epidermal growth factor receptor (Mus musculus) (Q01279 whole entry): as above
Sequence of Epidermal growth factor receptor (Homo sapiens, UniProt P00533) (P00533 whole entry): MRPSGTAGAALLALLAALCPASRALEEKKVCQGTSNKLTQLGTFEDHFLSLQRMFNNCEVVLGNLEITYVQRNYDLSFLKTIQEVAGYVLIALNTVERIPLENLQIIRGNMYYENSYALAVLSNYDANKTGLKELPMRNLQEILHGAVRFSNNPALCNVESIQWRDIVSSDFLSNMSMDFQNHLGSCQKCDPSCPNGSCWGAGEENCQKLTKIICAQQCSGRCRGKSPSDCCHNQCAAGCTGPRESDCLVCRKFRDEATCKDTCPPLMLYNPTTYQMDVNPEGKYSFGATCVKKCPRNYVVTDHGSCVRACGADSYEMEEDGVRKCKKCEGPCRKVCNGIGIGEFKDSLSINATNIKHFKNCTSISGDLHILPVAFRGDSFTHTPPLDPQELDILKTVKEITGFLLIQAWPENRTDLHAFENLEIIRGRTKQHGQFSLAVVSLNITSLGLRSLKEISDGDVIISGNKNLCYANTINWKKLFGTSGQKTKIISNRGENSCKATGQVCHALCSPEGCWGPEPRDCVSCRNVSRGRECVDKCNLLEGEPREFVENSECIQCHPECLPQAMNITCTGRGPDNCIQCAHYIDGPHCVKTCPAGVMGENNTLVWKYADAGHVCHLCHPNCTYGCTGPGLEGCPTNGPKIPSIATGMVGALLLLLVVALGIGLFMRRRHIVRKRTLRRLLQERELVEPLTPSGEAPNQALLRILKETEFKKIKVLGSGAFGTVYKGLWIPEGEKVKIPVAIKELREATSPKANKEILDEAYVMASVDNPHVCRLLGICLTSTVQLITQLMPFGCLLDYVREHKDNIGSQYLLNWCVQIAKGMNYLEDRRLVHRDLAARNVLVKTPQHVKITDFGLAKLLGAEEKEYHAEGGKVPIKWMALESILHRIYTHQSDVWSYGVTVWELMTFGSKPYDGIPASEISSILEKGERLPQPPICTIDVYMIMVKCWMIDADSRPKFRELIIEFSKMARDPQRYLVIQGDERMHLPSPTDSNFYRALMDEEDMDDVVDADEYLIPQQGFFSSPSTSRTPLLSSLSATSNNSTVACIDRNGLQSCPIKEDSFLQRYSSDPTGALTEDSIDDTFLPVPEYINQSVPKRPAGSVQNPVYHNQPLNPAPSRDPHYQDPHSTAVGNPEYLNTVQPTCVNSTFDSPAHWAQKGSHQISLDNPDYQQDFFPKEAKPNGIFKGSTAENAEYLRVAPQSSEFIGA

With Nc1cc(C(=O)O)ccc1O the IC50 [1] was over 653 µM.
Compound O=Cc1cc(O)ccc1O has an IC50 [1] of 239 µM.
Compound O=C(O)c1cc(N(Cc2cc(O)ccc2O)Cc2cc(O)ccc2O)ccc1O has an IC50 [1] of 0.0277 µM.
For O=C(O)c1ccc(O)c(N(Cc2ccccc2O)Cc2cc(O)ccc2O)c1, the IC50 [1] was 0.446 µM.
In the case of O=C(O)c1cc(/N=C\c2cc(O)ccc2O)ccc1O, the IC50 [1] is reported as 2.78 µM.
In the case of O=CN/C=C/c1cc(O)ccc1O [ERBSTATIN], the IC50 [1] is reported as 1.12 µM, the IC50 [2] is reported as 100 mg/L (≈ 558 µM) and the IC50 [3] is reported as over 179 mg/L. The IC50 [4] was 25 mg/L (≈ 140 µM) and the IC50 [5] was 1.12 µM.
For O=C(O)c1cc(N(Cc2ccccc2O)Cc2cc(O)ccc2O)ccc1O [LAVENDUSTIN A], the IC50 [6] was 26 mg/L (≈ 68.2 µM), the IC50 [1] was 0.0115 µM and the IC50 [2] was over 100 mg/L. For the same compound, the IC50 [3] was over 100 mg/L, the IC50 [4] was 6.4 mg/L (≈ 16.8 µM) and the Activity [7] was “Active”. The Activity [8] was “Active”, the IC50 [9] was 22 mg/L (≈ 57.7 µM) and the IC50 [10] was 19.5 mg/L (≈ 51.1 µM). For the same compound, the IC50 [11] was 21.5 mg/L (≈ 56.4 µM) and the IC50 [12] was 28 mg/L (≈ 73.4 µM).
In the case of O=C(O)c1cc(N(Cc2ccccc2O)Cc2ccccc2O)ccc1O [LAVENDUSTIN B], the IC50 [1] is reported as 1.34 µM.
Work on Nc1ccc(O)c(C(=O)O)c1 [MESALAMINE] yielded an IC50 [1] of 17.6 µM.
